In patent US20170190671A1, “BIS(ARYL)CATECHOL DERIVATIVES AS HERBICIDES” (E I DU PONT DE NEMOURS AND COMPANY, priority 2014, published 2017):

Key:
Type in all cases: in vivo
[1] = system: corn (Zea mays); experiment: Test A postemergence; settings: Zea mays, post-emergence, 240 h, 0 to 100 scale; for Corn plant response rating (crop injury, 0 = no effect, 100 = complete kill) at 31 g/ha: 31 g ai/ha; for Corn plant response rating (crop injury, 0 = no effect, 100 = complete kill) at 125 g/ha: 125 g ai/ha
Summary of the method: (§1)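 Injury scores run from 0, no effect, to 100, complete control, judged by eye against untreated plants roughly 10 days after treatment. Chemicals carried a surfactant in a non-phytotoxic solvent and went onto loam–sand soil preemergence or onto one- to two-leaf seedlings postemergence.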

[2] = system: kochia (Kochia scoparia); experiment: Test A postemergence; settings: Bassia scoparia, post-emergence, 240 h, 0 to 100 scale, read-out: Plant response rating, Kochia; for pest or weed control at 31 g/ha: 31 g ai/ha; for pest or weed control at 125 g/ha: 125 g ai/ha
Summary of the method: as §1

[3] = system: pigweed (Amaranthus retroflexus); experiment: Test A postemergence; settings: Amaranthus retroflexus, post-emergence, 240 h, 0 to 100 scale, read-out: Plant response rating, Pigweed; for pest or weed control at 31 g/ha: 31 g ai/ha; for pest or weed control at 125 g/ha: 125 g ai/ha
Summary of the method: as §1

[4] = system: blackgrass (Alopecurus myosuroides); experiment: Test A postemergence; settings: Alopecurus myosuroides, post-emergence, 240 h, 0 to 100 scale, read-out: Plant response rating, Blackgrass; for pest or weed control at 31 g/ha: 31 g ai/ha; for pest or weed control at 125 g/ha: 125 g ai/ha
Summary of the method: as §1

[5] = system: Italian ryegrass (Lolium multiflorum); experiment: Test A postemergence; settings: Lolium multiflorum, post-emergence, 240 h, 0 to 100 scale, read-out: Plant response rating, Ryegrass, Italian; for pest or weed control at 31 g/ha: 31 g ai/ha; for pest or weed control at 125 g/ha: 125 g ai/ha
Summary of the method: as §1

[6] = system: wheat (Triticum aestivum); experiment: Test A postemergence; settings: Triticum aestivum, post-emergence, 240 h, 0 to 100 scale, read-out: Plant response rating, Wheat; for plant injury at 31 g/ha: 31 g ai/ha; for plant injury at 125 g/ha: 125 g ai/ha
Summary of the method: as §1

[7] = system: giant foxtail (Setaria faberii); experiment: Test A postemergence; settings: Setaria faberi, post-emergence, 240 h, 0 to 100 scale, read-out: Plant response rating, Foxtail, Giant; for pest or weed control at 31 g/ha: 31 g ai/ha; for pest or weed control at 125 g/ha: 125 g ai/ha
Summary of the method: as §1

[8] = system: barnyardgrass (Echinochloa crus-galli); experiment: Test A postemergence; settings: Echinochloa crus-galli, post-emergence, 240 h, 0 to 100 scale, read-out: Plant response rating, Barnyardgrass; for pest or weed control at 31 g/ha: 31 g ai/ha; for pest or weed control at 125 g/ha: 125 g ai/ha
Summary of the method: as §1

[9] = system: galium (catchweed bedstraw, Galium aparine); experiment: Test A postemergence; settings: Galium, post-emergence, 240 h, 0 to 100 scale, read-out: Plant response rating, Galium; for pest or weed control at 31 g/ha: 31 g ai/ha; for pest or weed control at 125 g/ha: 125 g ai/ha
Summary of the method: as §1

[10] = system: ragweed (common ragweed, Ambrosia elatior); experiment: Test A postemergence; settings: Ambrosia artemisiifolia, post-emergence, 240 h, 0 to 100 scale, read-out: Plant response rating, Ragweed; for pest or weed control at 31 g/ha: 31 g ai/ha; for pest or weed control at 125 g/ha: 125 g ai/ha
Summary of the method: as §1

[11] = system: ducksalad (Heteranthera limosa); experiment: Test B flooded paddy; settings: Heteranthera limosa, 336 h; 250 g ai/ha, Flood, 13 to 15 days, scale 0 (no effect) to 100 (complete control); read-out: Plant response rating, Ducksalad
Summary of the method: (§2)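 Visual injury ratings against untreated controls, taken 13 to 15 days after compound was added to paddy water standing 3 cm above the soil.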

[12] = system: sedge, umbrella (small-flower umbrella sedge, Cyperus difformis); experiment: Test B flooded paddy; settings: Cyperus difformis, 336 h; 250 g ai/ha, Flood, 13 to 15 days, scale 0 (no effect) to 100 (complete control); read-out: Plant response rating, Sedge, Umbrella
Summary of the method: as §2

[13] = system: barnyardgrass (Echinochloa crus-galli); experiment: Test B flooded paddy; settings: Echinochloa crus-galli, 336 h; 250 g ai/ha, Flood, 13 to 15 days, scale 0 (no effect) to 100 (complete control); read-out: Plant response rating, Barnyardgrass
Summary of the method: as §2

[14] = system: rice (Oryza sativa); experiment: Test B flooded paddy; settings: Oryza sativa, 336 h; 250 g ai/ha, Flood, 13 to 15 days, scale 0 (no effect) to 100 (complete control); read-out: Plant response rating, Rice
Summary of the method: as §2

[15] = system: kochia (Kochia scoparia); experiment: Test A preemergence; settings: Bassia scoparia, pre-emergence, 240 h, 0 to 100 scale (0 no effect, 100 complete control), read-out: Kochia plant response rating; for pest or weed control at 31 g/ha: 31 g ai/ha; for pest or weed control at 125 g/ha: 125 g ai/ha
Summary of the method: as §1

[16] = system: pigweed (Amaranthus retroflexus); experiment: Test A preemergence; settings: Amaranthus retroflexus, pre-emergence, 240 h, 0 to 100 scale (0 no effect, 100 complete control), read-out: Pigweed plant response rating; for pest or weed control at 31 g/ha: 31 g ai/ha; for pest or weed control at 125 g/ha: 125 g ai/ha
Summary of the method: as §1

[17] = system: Italian ryegrass (Lolium multiflorum); experiment: Test A preemergence; settings: Lolium multiflorum, pre-emergence, 240 h, 0 to 100 scale (0 no effect, 100 complete control), read-out: Ryegrass, Italian plant response rating; for pest or weed control at 31 g/ha: 31 g ai/ha; for pest or weed control at 125 g/ha: 125 g ai/ha
Summary of the method: as §1

[18] = system: giant foxtail (Setaria faberii); experiment: Test A preemergence; settings: Setaria faberi, pre-emergence, 240 h, 0 to 100 scale (0 no effect, 100 complete control), read-out: Foxtail, Giant plant response rating; for pest or weed control at 31 g/ha: 31 g ai/ha; for pest or weed control at 125 g/ha: 125 g ai/ha
Summary of the method: as §1

[19] = system: barnyardgrass (Echinochloa crus-galli); experiment: Test A preemergence; settings: Echinochloa crus-galli, pre-emergence, 240 h, 0 to 100 scale (0 no effect, 100 complete control), read-out: Barnyardgrass plant response rating; for pest or weed control at 31 g/ha: 31 g ai/ha; for pest or weed control at 125 g/ha: 125 g ai/ha
Summary of the method: as §1

[20] = system: ragweed (common ragweed, Ambrosia elatior); experiment: Test A preemergence; settings: Ambrosia artemisiifolia, pre-emergence, 240 h, 0 to 100 scale (0 no effect, 100 complete control), read-out: Ragweed plant response rating; for pest or weed control at 31 g/ha: 31 g ai/ha; for pest or weed control at 125 g/ha: 125 g ai/ha
Summary of the method: as §1

Row | SMILES | Corn plant response rating (crop injury, 0 = no effect, 100 = complete kill) at 31 g/ha [1] [%] | Corn plant response rating (crop injury, 0 = no effect, 100 = complete kill) at 125 g/ha [1] [%] | pest or weed control at 31 g/ha [2] [%] | pest or weed control at 125 g/ha [2] [%] | pest or weed control at 31 g/ha [3] [%] | pest or weed control at 125 g/ha [3] [%] | pest or weed control at 31 g/ha [4] [%] | pest or weed control at 125 g/ha [4] [%] | pest or weed control at 31 g/ha [5] [%] | pest or weed control at 125 g/ha [5] [%] | plant injury at 31 g/ha [6] [%] | plant injury at 125 g/ha [6] [%] | pest or weed control at 31 g/ha [7] [%] | pest or weed control at 125 g/ha [7] [%] | pest or weed control at 31 g/ha [8] [%] | pest or weed control at 125 g/ha [8] [%] | pest or weed control at 31 g/ha [9] [%] | pest or weed control at 125 g/ha [9] [%] | pest or weed control at 31 g/ha [10] [%] | pest or weed control at 125 g/ha [10] [%] | other results
1 | N#Cc1cccc(Oc2ncc(Cl)cn2)c1Oc1cccc(Cl)c1 [Compound 37] | 0 | 0 | 0 | 0 | 0 | 0 | 0 | 0 | 0 | 0 | 0 | 0 | 0 | 0 | 0 | 0 | 0 | 0 | 0 | 0 | pest or weed control at 250 g/ha [11]: 0%; pest or weed control at 250 g/ha [12]: 0%; pest or weed control at 250 g/ha [13]: 0%; plant injury at 250 g/ha [14]: 0%; pest or weed control at 31 g/ha [15]: 0%; pest or weed control at 125 g/ha [15]: 0%; pest or weed control at 31 g/ha [16]: 0%; pest or weed control at 125 g/ha [16]: 0%; pest or weed control at 31 g/ha [17]: 0%; pest or weed control at 125 g/ha [17]: 0%; pest or weed control at 31 g/ha [18]: 0%; pest or weed control at 125 g/ha [18]: 0%; pest or weed control at 31 g/ha [19]: 0%; pest or weed control at 125 g/ha [19]: 0%; pest or weed control at 31 g/ha [20]: 0%; pest or weed control at 125 g/ha [20]: 0%
2 | N#Cc1cccc(Oc2ncc(Cl)cn2)c1Oc1ccccc1Cl [Compound 40] | 0 | 0 | 0 | 0 | 0 | 30 | 0 | 0 | 0 | 0 | 0 | 0 | 0 | 0 | 0 | 0 | 0 | 10 | 0 | 0 | pest or weed control at 250 g/ha [11]: 0%; pest or weed control at 250 g/ha [12]: 0%; pest or weed control at 250 g/ha [13]: 0%; plant injury at 250 g/ha [14]: 0%; pest or weed control at 31 g/ha [15]: 0%; pest or weed control at 125 g/ha [15]: 0%; pest or weed control at 31 g/ha [16]: 0%; pest or weed control at 125 g/ha [16]: 0%; pest or weed control at 31 g/ha [17]: 0%; pest or weed control at 125 g/ha [17]: 0%; pest or weed control at 31 g/ha [18]: 0%; pest or weed control at 125 g/ha [18]: 0%; pest or weed control at 31 g/ha [19]: 0%; pest or weed control at 125 g/ha [19]: 0%; pest or weed control at 31 g/ha [20]: 0%; pest or weed control at 125 g/ha [20]: 0%
3 | FC(F)c1cccc(Oc2ncc(Br)cn2)c1Oc1ncc(Cl)cn1 [Compound 41] | 10 | 50 | 50 | 90 | 100 | 100 | 40 | 80 | 30 | 60 | 0 | 20 | 30 | 90 | 40 | 80 | 60 | 80 | 30 | 50 | pest or weed control at 250 g/ha [11]: 30%; pest or weed control at 250 g/ha [12]: 40%; pest or weed control at 250 g/ha [13]: 0%; plant injury at 250 g/ha [14]: 0%; pest or weed control at 31 g/ha [15]: 70%; pest or weed control at 125 g/ha [15]: 100%; pest or weed control at 31 g/ha [16]: 100%; pest or weed control at 125 g/ha [16]: 100%; pest or weed control at 31 g/ha [17]: 0%; pest or weed control at 125 g/ha [17]: 30%; pest or weed control at 31 g/ha [18]: 100%; pest or weed control at 125 g/ha [18]: 100%; pest or weed control at 31 g/ha [19]: 20%; pest or weed control at 125 g/ha [19]: 80%; pest or weed control at 31 g/ha [20]: 0%; pest or weed control at 125 g/ha [20]: 60%
